Results taken from PubChem BioAssay (NCI).
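Five concentrations, 48 hours, 96-well plates. Abbreviation: GI50, concentration required for 50% inhibition of growth. TGI is the concentration that stops growth completely.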

How the values were obtained:
Test in all cases: inhibition of tumour cell growth, NCI panel, 48 h
A549 NSCLC = system: A549 NSCLC
CAKI-1 renal = system: CAKI-1 renal
CCRF-CEM leukemia = system: CCRF-CEM leukemia
EKVX NSCLC = system: EKVX NSCLC
HOP-92 NSCLC = system: HOP-92 NSCLC
NCI-H226 lung = system: NCI-H226 lung
OVCAR-5 ovarian = system: OVCAR-5 ovarian
SF-268 CNS = system: SF-268 CNS
SNB-19 CNS = system: SNB-19 CNS
UO-31 renal = system: UO-31 renal

Nc1ccccc1C#C/C=C\C#Cc1cccs1
GI50 (A549 NSCLC): 10.4 µM
TGI (A549 NSCLC): > 42.5 µM
GI50 (CAKI-1 renal): 3.75 µM
TGI (CAKI-1 renal): 21 µM
GI50 (CCRF-CEM leukemia): 0.295 µM
TGI (CCRF-CEM leukemia): 2.2 µM
GI50 (EKVX NSCLC): 12.7 µM
TGI (EKVX NSCLC): 35.1 µM
GI50 (HOP-92 NSCLC): 6.4 µM
TGI (HOP-92 NSCLC): 36.6 µM
GI50 (NCI-H226 lung): 2.22 µM
TGI (NCI-H226 lung): 16.9 µM
GI50 (OVCAR-5 ovarian): 15.2 µM
TGI (OVCAR-5 ovarian): 32.7 µM
GI50 (SF-268 CNS): 4.26 µM
TGI (SF-268 CNS): 34.9 µM
GI50 (SNB-19 CNS): 43.5 µM
TGI (SNB-19 CNS): > 100 µM
GI50 (UO-31 renal): 8.77 µM
TGI (UO-31 renal): > 43.5 µM

CN(C)CCCNC(CC#N)CCC#N (stereo not given)
TGI (A549 NSCLC): > 10 µM
TGI (CAKI-1 renal): > 10 µM
TGI (CCRF-CEM leukemia): > 10 µM
TGI (EKVX NSCLC): > 10 µM
TGI (HOP-92 NSCLC): > 10 µM
TGI (NCI-H226 lung): > 10 µM
TGI (OVCAR-5 ovarian): > 10 µM
TGI (SF-268 CNS): > 10 µM
TGI (SNB-19 CNS): > 10 µM
TGI (UO-31 renal): > 10 µM

CCOC(=O)COc1ccccc1/C=C1\CCC(CN(C)C)C1=O (stereo not given)
TGI (A549 NSCLC): 42.8 µM
TGI (CAKI-1 renal): 10.9 µM
TGI (CCRF-CEM leukemia): 8.42 µM
TGI (EKVX NSCLC): 34.7 µM
TGI (HOP-92 NSCLC): 25.8 µM
TGI (NCI-H226 lung): 32.8 µM
TGI (OVCAR-5 ovarian): 32.4 µM
TGI (SF-268 CNS): 12.7 µM
TGI (SNB-19 CNS): 20.6 µM
TGI (UO-31 renal): 29.9 µM

N#C/C(=C\c1ccc(O)c(O)c1)C(N)=S
TGI (A549 NSCLC): > 100 µM
TGI (CAKI-1 renal): > 100 µM
TGI (CCRF-CEM leukemia): > 55.3 µM
TGI (EKVX NSCLC): > 100 µM
TGI (HOP-92 NSCLC): > 100 µM
TGI (NCI-H226 lung): > 100 µM
TGI (OVCAR-5 ovarian): > 100 µM
TGI (SF-268 CNS): > 100 µM
TGI (SNB-19 CNS): > 100 µM
TGI (UO-31 renal): > 100 µM

CC1C=C(OC(=O)c2ccccc2)C(=O)C(n2cc(F)c(=O)[nH]c2=O)O1 (stereo not given)
TGI (A549 NSCLC): > 100 µM
TGI (CAKI-1 renal): > 100 µM
TGI (CCRF-CEM leukemia): > 100 µM
TGI (EKVX NSCLC): > 100 µM
TGI (HOP-92 NSCLC): > 100 µM
TGI (NCI-H226 lung): > 100 µM
TGI (OVCAR-5 ovarian): > 100 µM
TGI (SF-268 CNS): > 100 µM
TGI (SNB-19 CNS): > 100 µM
TGI (UO-31 renal): > 100 µM

C=CCC[CH2][Sn]([c]1ccccc1)([c]1ccccc1)[c]1ccccc1
GI50 (A549 NSCLC): 1.71 µM
TGI (A549 NSCLC): 3.54 µM
GI50 (CAKI-1 renal): 1.52 µM
TGI (CAKI-1 renal): 3.18 µM
GI50 (CCRF-CEM leukemia): 1.01 µM
TGI (CCRF-CEM leukemia): 4.37 µM
GI50 (EKVX NSCLC): 1.89 µM
TGI (EKVX NSCLC): 3.97 µM
GI50 (HOP-92 NSCLC): 1.78 µM
TGI (HOP-92 NSCLC): 3.38 µM
GI50 (NCI-H226 lung): 1.74 µM
TGI (NCI-H226 lung): 3.33 µM
GI50 (OVCAR-5 ovarian): 1.12 µM
TGI (OVCAR-5 ovarian): 2.35 µM
GI50 (SF-268 CNS): 1.26 µM
TGI (SF-268 CNS): 2.71 µM
GI50 (SNB-19 CNS): 1.73 µM
TGI (SNB-19 CNS): 3.31 µM
GI50 (UO-31 renal): 1.89 µM
TGI (UO-31 renal): 3.36 µM

O=C(CN1CCOCC1)Nc1nc(-c2ccc(Cl)cc2)cs1
TGI (A549 NSCLC): > 100 µM
TGI (CAKI-1 renal): > 100 µM
TGI (CCRF-CEM leukemia): 63.9 µM
TGI (EKVX NSCLC): > 100 µM
TGI (HOP-92 NSCLC): > 100 µM
TGI (NCI-H226 lung): 60.9 µM
TGI (OVCAR-5 ovarian): > 100 µM
TGI (SF-268 CNS): > 100 µM
TGI (SNB-19 CNS): > 100 µM
TGI (UO-31 renal): 67 µM

Cc1c(C(=O)C/C(=N\O)C(=O)Nc2cc(Cl)c(Cl)cc2Cl)[n+](=O)c2ccccc2n1[O-]
TGI (A549 NSCLC): > 100 µM
TGI (CAKI-1 renal): > 100 µM
TGI (CCRF-CEM leukemia): > 100 µM
TGI (EKVX NSCLC): 43.6 µM
TGI (HOP-92 NSCLC): 46.2 µM
TGI (NCI-H226 lung): 37.5 µM
TGI (OVCAR-5 ovarian): 39.6 µM
TGI (SF-268 CNS): 75.7 µM
TGI (SNB-19 CNS): > 100 µM
TGI (UO-31 renal): 78.2 µM

CC1SC2=NC3=C(c4ccccc4C3=O)C(c3ccc(F)cc3)N2C1=O (stereo not given)
TGI (A549 NSCLC): > 100 µM
TGI (CAKI-1 renal): > 100 µM
TGI (CCRF-CEM leukemia): > 100 µM
TGI (EKVX NSCLC): > 100 µM
TGI (HOP-92 NSCLC): > 100 µM
TGI (NCI-H226 lung): > 100 µM
TGI (OVCAR-5 ovarian): > 100 µM
TGI (SF-268 CNS): > 100 µM
TGI (SNB-19 CNS): > 100 µM
TGI (UO-31 renal): > 100 µM
